Source: patent US20020133832A1, “Model systems for neuordegenerative and cardiovascular disorders” (priority 2000, published 2002)
“Also recorded” adds a separate entry of the source.

Assays:
Assay type in all cases: in vivo, mouse
S1+/− and T1+/− mice = assay: Rescue of reduced rearing behavior (rearings/min) in the open field; conditions: terazosin target dose 0.05 mg/kg body weight/day via drinking water, four weeks, L-DOPA as Sinemet
Description: FIG. 6. An Active Open Field Activity System (Harvard Apparatus, Holliston, Mass.) was used to monitor total activity, distance traveled/min and number of rearings/min in age matched NT (▴), W2+/−(▪), S1+/−(●) and T1+/−(▾) and T2+/−(♦) mice. The open field for these experiments was a 16 inch by 16 inch enclosure with infrared beams of light aimed to form grids near the floor and 3 inches above the floor of the enclosure. (A) Total activity, or the total number of beam breaks each minute, was determined in two month old mice for a total time of 15 min. (B) A computer algorithm was used to calculate the distance traveled/min during horizontal ambulation by mice of varying age. (C) The number of rearings/minute was determined by electronically tallying the number of times mice of varying age reared onto their hindlimbs, facilitating a greater than 1 sec beam break in the upper grid (3 inches above the floor of the enclosure). (D) Snapshot of an 11 month old S1+/− mouse showing elongation of the torso caused by sprawling and dragging of the hindlimbs. (E) The ability of terazosin and L-DOPA to rescue the reduced number of rearings/min seen in eighteen month old S1+/− and T1+/− mice was tested by administering a target dose of 0.05 mg terazosin/kg body weight/day via the drinking water. After a four week pretreatment with the drug, the number of rearings/min was determined. All error bars in the Figurere present SEM (n>3) and significance in D was determined using analysis of variance with a two-tailed Student's t test (p<0.05).
Receptor overactivity was inhibited in S1+/− and T1+/− mice via treatment with the α1BAR-specific antagonist terazosin. Animals were treated with the drug at a target dose of 0.05 mg/Kg of body weight/day via the drinking water. […] (FIG. 6E).

T2+/− mice [1] = assay: Percent seizure activity induced by open field stress; conditions: T2 mice at 12 months of age, 0.05 mg/Kg body weight/day via drinking water, four weeks
Protocol: (§1) FIG. 7. (A) Sequence of seizure behaviors in a 12 month old T2+/− mouse. 1; behavioral arrest. 2; loss of balance and whole body jerking. 3; forelimb flexion. 4; recovery. (B) Comparison of percent seizure activity induced by open field stress in various lines of mice at 12 months of age. […] Percent seizure activity was then calculated by dividing the number of seizure-positive mice by the total number of mice tested. The total number of mice tested for each case is shown above the respective column in the graph. The ability of terazosin to rescue T2+/− mice from the seizure phenotype was tested by administering a target dose of 0.05 mg/kg body weight/day via the drinking water. After a four week pretreatment with the drug, percent seizure activity was determined. (C) Identical experiment to that described in B, except percent seizure activity was determined in lines of mice at seven months of age that were exposed to intraperitoneal injection (IPI) stress. IPI stress was administered to the mice by intraperitoneal injection of […] of sterile 0.9% NaCl.
The seizure event seen in W2+/−, S 1+/−, T1+/− and T2+/− mice at twelve months of age was evoked by exposure to the open field (i.e. handling-invoked stress) and was characterized by behavioral arrest, facial twitching, loss of balance, forelimb automatism, whole body jerking and hypersalivation. […]

T2+/− mice [2] = assay: Percent seizure activity induced by intraperitoneal injection (IPI) stress; conditions: T2 mice at 7 months of age, 0.05 mg/Kg body weight/day via drinking water, 4 weeks, 0.05 mg/kg/day
Protocol: as §1
Seizures seen in response to this intraperitoneal injection stress (IPI stress) resembled the open field stress-induced event in terms of severity, characteristics and duration. […]

SMILES | rearing behavior (number of rearings/min) (S1+/− and T1+/− mice; eighteen month old S1+/− mice) | rearing behavior (number of rearings/min) (S1+/− and T1+/− mice; eighteen month old T1+/− mice) | percent seizure activity (T2+/− mice [1]) | percent seizure activity (T2+/− mice [2])
N[C@@H](Cc1ccc(O)c(O)c1)C(=O)O [L-DOPA] | did not improve the locomotor activity | dramatically reversed the rearing deficit | – | –
COc1cc2nc(N3CCN(C(=O)C4CCCO4)CC3)nc(N)c2cc1OC (stereo not drawn) [terazosin] | partial rescue of the rearing behavior | partial rescue of the rearing behavior | partially reversible i.e., fewer events | reduced the number of younger T2+/− mice displaying IPI-induced seizures; also recorded: partially reversed the phenotype
